20 compounds from patent USRE50082E1, “(5,6-dihydro)pyrimido[4,5-e]indolizines” (NETHERLANDS TRANSLATIONAL RESEARCH CENTER B.V., priority 2014, dated 2024) can be followed below.

This test relates to MOLT-4 cancer cell line. Nature of the test: Cell proliferation assay, MOLT-4 cancer cell line (ATPlite).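 Also: luminescence read-out, percent growth versus compound-free DMSO wells as maximum growth, start-of-incubation signal separating growth from cell death, IC50 from logistic curve fit.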 It is filed as cell-based. The conditions noted are these: Homo sapiens, MOLT-4; 72 hours incubation, ATPlite 1Step; read-out: IC50 MOLT-4 cell proliferation.

For `Cc1cc(N2CCN(C)CC2)ccc1Nc1ncc2c(n1)-n1ccc(C(=O)Nc3c(Cl)cccc3Cl)c1CC2` [Example 66, N-(2,6-dichlorophenyl)-2-[2-methyl-4-(4-methylpiperazin-1-yl)anilino]-5,6-dihydropyrimido[4,5-e]indolizine-7-carboxamide], the IC50 is less than 0.05 µM.
For `COc1cc(C(=O)NC2CCOCC2)ccc1Nc1ncc2c(n1)-n1ccc(C(=O)Nc3c(C)cccc3C)c1CC2` [Example 103, N-(2,6-dimethylphenyl)-2-[2-methoxy-4-(tetrahydropyran-4-ylcarbamoyl)anilino]-5,6-dihydropyrimido[4,5-e]indolizine-7-carboxamide] the value was less than 0.05 µM; for `COc1cc(C(=O)N2CCC(C)(C#N)CC2)ccc1Nc1ncc2c(n1)-n1ccc(C(=O)Nc3c(C)cccc3C)c1CC2` [Example 129, 2-[4-(4-Cyano-4-methyl-piperidine-1-carbonyl)-2-methoxy-anilino]-N-(2,6-dimethylphenyl)-5,6-dihydropyrimido[4,5-e]indolizine-7-carboxamide], less than 0.05 µM; for `COCCn1nc(C)c(NC(=O)c2ccn3c2ccc2cnc(Nc4ccc(N5CCNCC5)cc4OC)nc23)c1C` [Example 96, N-[1-(2-methoxyethyl)-3,5-dimethyl-pyrazol-4-yl]-2-(2-methoxy-4-piperazin-1-yl-anilino)pyrimido[4,5-e]indolizine-7-carboxamide], less than 0.05 µM.
Take `COc1cc(N2CCN(C)CC2)ccc1Nc1ncc2c(n1)-n1ccc(C(=O)Nc3c(C)cccc3C#N)c1CC2` [Example 133, N-(2-cyano-6-methyl-phenyl)-2-[2-methoxy-4-(4-methylpiperazin-1-yl)anilino]-5,6-dihydropyrimido[4,5-e]indolizine-7-carboxamide]: the IC50 is less than 0.05 µM.
For the compound `COCCn1nc(C)c(NC(=O)c2ccn3c2CCc2cnc(Nc4ccc(N5CCN(C(C)=O)CC5)cc4OC)nc2-3)c1C` [Example 131, 2-[4-(4-Acetylpiperazin-1-yl)-2-methoxy-anilino]-N-[1-(2-methoxyethyl)-3,5-dimethyl-pyrazol-4-yl]-5,6-dihydropyrimido[4,5-e]indolizine-7-carboxamide], the IC50 was 0.05 to 0.15 µM.
For `COCCOCCOCCn1nc(C)c(NC(=O)c2ccn3c2CCc2cnc(Nc4ccc(OCCOC)cc4OC)nc2-3)c1C` [Example 137, N-[1-[2-[2-(2-methoxyethoxy)ethoxy]ethyl]-3,5-dimethyl-pyrazol-4-yl]-2-[2-methoxy-4-(2-methoxyethoxy)anilino]-5,6-dihydropyrimido[4,5-e]indolizine-7-carboxamide] the value was less than 0.05 µM.
The value for `COc1cc(N2CCN(C)CC2)ccc1Nc1ncc2c(n1)-n1ccc(C(=O)Nc3c(Cl)cccc3Cl)c1CC2` [Example 61, N-(2,6-dichlorophenyl)-2-[2-methoxy-4-(4-methylpiperazin-1-yl)anilino]-5,6-dihydropyrimido[4,5-e]indolizine-7-carboxamide] was less than 0.05 µM; that for `Cc1cc(N2CCNCC2)ccc1Nc1ncc2c(n1)-n1ccc(C(=O)Nc3c(Cl)cccc3Cl)c1CC2` [Example 79, N-(2,6-dichlorophenyl)-2-(2-methyl-4-piperazin-1-yl-anilino)-5,6-dihydropyrimido[4,5-e]indolizine-7-carboxamide] was less than 0.05 µM; that for `Cc1cccc(C)c1NC(=O)c1ccn2c1CCc1cnc(Nc3ccc(N4CCN(C)CC4)cc3OC(F)F)nc1-2` [Example 144, N-(2,6-dimethyl-phenyl)-2-[2-(difluoromethoxy)-4-(4-methylpiperazin-1-yl)anilino]-5,6-dihydropyrimido[4,5-e]indolizine-7-carboxamide] was less than 0.05 µM.
`[2H]C([2H])([2H])Oc1cc(N2CCN(C)CC2)ccc1Nc1ncc2c(n1)-n1ccc(C(=O)Nc3c(CC)nn(CCOC)c3CC)c1CC2` [Example 100, N-[3,5-diethyl-1-(2-methoxyethyl)pyrazol-4-yl]-2-[4-(4-methylpiperazin-1-yl)-2-(trideuteriomethoxy)anilino]-5,6-dihydropyrimido[4,5-e]indolizine-7-carboxamide]: the IC50 is less than 0.05 µM.
As for `COc1cc(N2CCNCC2)ccc1Nc1ncc2c(n1)-n1ccc(C(=O)Nc3c(C)cccc3C)c1CC2` [Example 17, N-(2,6-dimethylphenyl)-2-(2-methoxy-4-piperazin-1-yl-anilino)-5,6-dihydropyrimido[4,5-e]indolizine-7-carboxamide], the IC50 is less than 0.05 µM.
Consider `CCc1nn(CCOC)c(CC)c1NC(=O)c1ccn2c1CCc1cnc(Nc3ccc(N4CCNCC4)cc3OC)nc1-2` [Example 19, N-[3,5-diethyl-1-(2-methoxyethyl)pyrazol-4-yl]-2-(2-methoxy-4-piperazin-1-yl-anilino)-5,6-dihydropyrimido[4,5-e]indolizine-7-carboxamide], for which the IC50 was less than 0.05 µM.
For `Cc1cc(N2CCNCC2)ccc1Nc1ncc2c(n1)-n1ccc(C(=O)Nc3c(C)cccc3Cl)c1CC2` [Example 78, N-(2-chloro-6-methyl-phenyl)-2-(2-methyl-4-piperazin-1-yl-anilino)-5,6-dihydropyrimido[4,5-e]indolizine-7-carboxamide] the value was less than 0.05 µM.
On to `CCc1cccc(CC)c1NC(=O)c1ccn2c1CCc1cnc(Nc3ccc(N4CCOCC4)cc3C)nc1-2` [Example 83, N-(2,6-diethylphenyl)-2-(2-methyl-4-morpholino-anilino)-5,6-dihydropyrimido[4,5-e]indolizine-7-carboxamide], for which the IC50 was less than 0.05 µM.
On to `Cc1cccc(Br)c1NC(=O)c1ccn2c1CCc1cnc(Nc3ccc(N4CCOCC4)nc3C)nc1-2` [Example 70, N-(2-bromo-6-methyl-phenyl)-2-[(2-methyl-6-morpholino-3-pyridyl)amino]-5,6-dihydropyrimido[4,5-e]indolizine-7-carboxamide], for which the IC50 is less than 0.05 µM.
For `CCc1cccc(CC)c1NC(=O)c1ccn2c1CCc1cnc(Nc3ccc(OCCN(C)C)cc3OC)nc1-2` [Example 52, N-(2,6-diethylphenyl)-2-[4-(2-dimethylaminoethyloxy)-2-methoxy-anilino]-5,6-dihydropyrimido[4,5-e]indolizine-7-carboxamide] the value was 0.05 to 0.15 µM.
The value for `COc1cc(OC2CCN(C)CC2)ccc1Nc1ncc2ccc3c(C(=O)Nc4c(C)cccc4C)ccn3c2n1` [Example 62, N-(2,6-dimethylphenyl)-2-[2-methoxy-4-[(1-methyl-4-piperidyl)oxy]anilino]pyrimido[4,5-e]indolizine-7-carboxamide] was less than 0.05 µM.
For `CCc1cccc(CC)c1NC(=O)c1ccn2c1CCc1cnc(Nc3ccc(N(C)CCCN(C)C)cc3OC)nc1-2` [Example 134, N-(2,6-diethylphenyl)-2-[4-[3-(dimethylamino)propyl-methyl-amino]-2-methoxy-anilino]-5,6-dihydropyrimido[4,5-e]indolizine-7-carboxamide] the value was less than 0.05 µM; for `COc1cc(N2CCN(C(=O)C3(C)CNC3)CC2)ccc1Nc1ncc2c(n1)-n1ccc(C(=O)Nc3c(C)cccc3C)c1CC2` [Example 130, N-(2,6-dimethylphenyl)-2-[2-methoxy-4-[4-(3-methylazetidine-3-carbonyl)piperazin-1-yl]anilino]-5,6-dihydropyrimido[4,5-e]indolizine-7-carboxamide], less than 0.05 µM.
